The values below come from ChEMBL document CHEMBL1143776, “Thioimidoyl furanosides as first inhibitors of the alpha-L-arabinofuranosidase AbfD3” (Bioorg Med Chem Lett, 2007).

Where only a bound is given, the exact number is not on record here.

This assay can be described thus: Inhibition of AbfD3.
For the compound `OC[C@@H]1O[C@@H](Sc2ncccn2)[C@H](O)[C@H]1O`, the IC50 – broadly, the concentration needed to halve the response being measured – was under 100 µM.
For the compound `OC[C@@H]1O[C@@H](Sc2nc3ccccc3[nH]2)[C@H](O)[C@H]1O`, the IC50 was under 100 µM.
To `OC[C@@H]1O[C@@H](Sc2nccs2)[C@H](O)[C@H]1O` belongs under 100 µM; to `OC[C@@H]1O[C@@H](Sc2nc3ccccc3s2)[C@H](O)[C@H]1O`, under 100 µM.
As to `OC[C@@H]1O[C@@H](Sc2ccccn2)[C@H](O)[C@H]1O`, the half-inhibitory concentration (IC50) is under 100 µM.
